Test results from the supplement of paper PMC10307832.

How the values were obtained:
Assay in all cases: relative viability (nuclei count vs DMSO), 5 days (fraction); higher = more cells survive
Calu-6 = system: Calu-6
Procedure, shortened: (§1)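 One day after seeding in 1536-well plates, lung cancer cell lines were dosed by pin tool. Dosing was either single-drug or a fixed anchor-drug dose plus five library-drug doses (not always all listed) in √10 steps. After 5 days, nuclei were stained in one fix-and-stain step and counted on 4× images, and relative viability is the nuclei count of treated wells over that of vehicle wells, given as the median of duplicate plates.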

NCI-H1299 = system: NCI-H1299
Procedure, shortened: as §1

A549 = system: A549
Procedure, shortened: as §1

NCI-H1703 = system: NCI-H1703
Procedure, shortened: as §1

IA-LM = system: IA-LM
Procedure, shortened: as §1

NCI-H2126 = system: NCI-H2126
Procedure, shortened: as §1

ABC-1 = system: ABC-1
Procedure, shortened: as §1

EBC-1 = system: EBC-1
Procedure, shortened: as §1

EKVX = system: EKVX
Procedure, shortened: as §1

NC(=O)Nc1cc(-c2cccc(F)c2)sc1C(=O)N[C@H]1CCCNC1 [AZD7762] + Cc1nc(NC(=O)N2CCC[C@H]2C(N)=O)sc1-c1ccnc(C(C)(C)C(F)(F)F)c1 [Alpelisib] (partner 2 µM) gave a relative viability (Calu-6; first compound 0.01 µM) of 1.03, a relative viability (Calu-6; first compound 0.03162 µM) of 0.935 and a relative viability (Calu-6; first compound 0.1 µM) of 0.881. For the same molecule, the relative viability (Calu-6; first compound 0.3162 µM) was 0.411, the relative viability (Calu-6; first compound 1 µM) was 0.157 and the relative viability (NCI-H1299; first compound 0.01 µM) was 1.16. For the same molecule, the relative viability (NCI-H1299; first compound 0.03162 µM) was 1.01, the relative viability (NCI-H1299; first compound 0.1 µM) was 1.03 and the relative viability (NCI-H1299; first compound 0.3162 µM) was 1.04. The relative viability (NCI-H1299; first compound 1 µM) was 0.942, the relative viability (A549; first compound 0.01 µM) was 0.748 and the relative viability (A549; first compound 0.03162 µM) was 0.86. For the same molecule, the relative viability (A549; first compound 0.1 µM) was 0.83, the relative viability (A549; first compound 0.3162 µM) was 0.84 and the relative viability (A549; first compound 1 µM) was 0.336. It also gave a relative viability (NCI-H1703; first compound 0.01 µM) of 0.314, a relative viability (NCI-H1703; first compound 0.03162 µM) of 0.224 and a relative viability (NCI-H1703; first compound 0.1 µM) of 0.231. For the same molecule, the relative viability (NCI-H1703; first compound 0.3162 µM) was 0.164, the relative viability (NCI-H1703; first compound 1 µM) was 0.146 and the relative viability (IA-LM; first compound 0.01 µM) was 0.828. The relative viability (IA-LM; first compound 0.03162 µM) was 0.702, the relative viability (IA-LM; first compound 0.1 µM) was 0.885 and the relative viability (IA-LM; first compound 0.3162 µM) was 1.07. It also gave a relative viability (IA-LM; first compound 1 µM) of 0.364, a relative viability (NCI-H2126; first compound 0.01 µM) of 0.794 and a relative viability (NCI-H2126; first compound 0.03162 µM) of 0.775. For the same molecule, the relative viability (NCI-H2126; first compound 0.1 µM) was 0.887, the relative viability (NCI-H2126; first compound 0.3162 µM) was 0.824 and the relative viability (NCI-H2126; first compound 1 µM) was 0.85. It also gave a relative viability (ABC-1; first compound 0.01 µM) of 1.03, a relative viability (ABC-1; first compound 0.03162 µM) of 0.831 and a relative viability (ABC-1; first compound 0.1 µM) of 0.942. The relative viability (ABC-1; first compound 0.3162 µM) was 0.557, the relative viability (ABC-1; first compound 1 µM) was 0.311 and the relative viability (EBC-1; first compound 0.01 µM) was 0.952. The relative viability (EBC-1; first compound 0.03162 µM) was 0.714, the relative viability (EBC-1; first compound 0.1 µM) was 0.831 and the relative viability (EBC-1; first compound 0.3162 µM) was 0.763. For the same molecule, the relative viability (EBC-1; first compound 1 µM) was 0.367, the relative viability (EKVX; first compound 0.01 µM) was 0.846 and the relative viability (EKVX; first compound 0.03162 µM) was 0.845. For the same molecule, the relative viability (EKVX; first compound 0.1 µM) was 0.805, the relative viability (EKVX; first compound 0.3162 µM) was 0.787 and the relative viability (EKVX; first compound 1 µM) was 0.468.
For C=C1C(=O)O[C@@H](CCCCCCCC)[C@@H]1C(=O)O [C-75] + CS(=O)(=O)CCNCc1ccc(-c2ccc3ncnc(Nc4ccc(OCc5cccc(F)c5)c(Cl)c4)c3c2)o1 [Lapatinib] (partner 2 µM), the relative viability (Calu-6; first compound 0.08 µM) was 1.03, the relative viability (Calu-6; first compound 0.253 µM) was 1.06 and the relative viability (Calu-6; first compound 0.8 µM) was 1.04. For the same molecule, the relative viability (Calu-6; first compound 2.53 µM) was 0.894, the relative viability (Calu-6; first compound 8 µM) was 0.925 and the relative viability (NCI-H1299; first compound 0.08 µM) was 0.971. The relative viability (NCI-H1299; first compound 0.253 µM) was 1, the relative viability (NCI-H1299; first compound 0.8 µM) was 0.935 and the relative viability (NCI-H1299; first compound 2.53 µM) was 0.946. For the same molecule, the relative viability (NCI-H1299; first compound 8 µM) was 0.955, the relative viability (A549; first compound 0.08 µM) was 1.01 and the relative viability (A549; first compound 0.253 µM) was 1.1. It also gave a relative viability (A549; first compound 0.8 µM) of 0.798, a relative viability (A549; first compound 2.53 µM) of 0.937 and a relative viability (A549; first compound 8 µM) of 0.89. For the same molecule, the relative viability (NCI-H1703; first compound 0.08 µM) was 1.17, the relative viability (NCI-H1703; first compound 0.8 µM) was 0.977 and the relative viability (NCI-H1703; first compound 2.53 µM) was 1.17. For the same molecule, the relative viability (NCI-H1703; first compound 8 µM) was 0.888, the relative viability (IA-LM; first compound 0.08 µM) was 0.816 and the relative viability (IA-LM; first compound 0.253 µM) was 0.954. It also gave a relative viability (IA-LM; first compound 8 µM) of 0.476, a relative viability (NCI-H2126; first compound 0.08 µM) of 0.774 and a relative viability (NCI-H2126; first compound 0.253 µM) of 0.914. For the same molecule, the relative viability (NCI-H2126; first compound 0.8 µM) was 0.728, the relative viability (NCI-H2126; first compound 2.53 µM) was 0.62 and the relative viability (NCI-H2126; first compound 8 µM) was 0.758. It also gave a relative viability (ABC-1; first compound 0.08 µM) of 1.1, a relative viability (ABC-1; first compound 0.253 µM) of 1.33 and a relative viability (ABC-1; first compound 0.8 µM) of 1.17. It also gave a relative viability (ABC-1; first compound 2.53 µM) of 0.981, a relative viability (ABC-1; first compound 8 µM) of 0.929 and a relative viability (EBC-1; first compound 0.08 µM) of 0.259. For the same molecule, the relative viability (EBC-1; first compound 0.253 µM) was 0.237, the relative viability (EBC-1; first compound 0.8 µM) was 0.18 and the relative viability (EBC-1; first compound 2.53 µM) was 0.243. It also gave a relative viability (EBC-1; first compound 8 µM) of 0.224, a relative viability (EKVX; first compound 0.08 µM) of 0.266 and a relative viability (EKVX; first compound 0.253 µM) of 0.211. It also gave a relative viability (EKVX; first compound 0.8 µM) of 0.224, a relative viability (EKVX; first compound 2.53 µM) of 0.184 and a relative viability (EKVX; first compound 8 µM) of 0.214.
